Measured values taken from patent publication US11078216B2, “Bisaryl amides as NRF2 activators” (GLAXOSMITHKLINE INTELLECTUAL PROPERTY DEVELOPMENT LIMITED, priority 2016, dated 2021).

What follows are compounds tested on NRF2 (NQO1 activity as marker for NRF2 activation), BEAS-2B cells (assay: BEAS-2B NQO1 MTT Assay). Conditions: Homo sapiens, EC50 of NQO1 specific activity induction, 48 hours incubation, read-out: EC50.
Type: cell-based
Excerpt: NAD(P)H:quinone oxidoreductase 1 (NQO1), also called DT diaphorase, is a homodimeric FAD-containing enzyme that catalyzes obligatory NAD(P)H-dependent two-electron reductions of quinones and protects cells against the toxic and neoplastic effects of free radicals and reactive oxygen species arising from one-electron reductions. The transcription of NQO1 is finely regulated by NRF2, and thus NQO1 activity is a good marker for NRF2 activation. On day one, frozen BEAS-2B cells (ATCC) are thawed in a water bath, counted, and re-suspended at a concentration of 250,000 cells/mL. Fifty microliters of cells are plated in 384 well black clear-bottomed plates. Plates are incubated at 37° C., 5% CO2 overnight. On day two, plates are centrifuged and 50 nL of compound or controls are added to the cells. Plates are then incubated at 37° C., 5% CO2 for 48 hours. On day four, medium is aspirated from the plate and crude cell lysates are made by adding 13 uL of 1× Cell Signaling Technologies lysis buffer with 1 Complete, Mini, EDTA-free Protease Inhibitor Tablet (Roche) for each 10 mL of lysis buffer. After lysis plates are incubated for 20 minutes at room temperature. Two microliters of lysate are removed for use in Cell Titer Glo assay (Promega) and MTT cocktail is prepared (Prochaska et. al. 1998) for measurement of NQO1 activity. Fifty microliters of MTT cocktail is added to each well, plate is centrifuged, and analyzed on an Envision plate reader (Perkin Elmer) using Absorbance 570 nm label for 30 minutes. Product formation is measured kinetically and the EC50 of NQO1 specific activity induction is calculated by plotting the change in absorbance (Delta OD/min) versus the log of compound concentration followed by 3-parameter fitting.
EC50s<1 nM (+++++), EC50s 1 nM-10 nM (++++), EC50s 10 nM-100 nM (+++), EC50s 100 nM-1 uM (++), EC50s 1-10 uM (+), EC50s>10 uM (−), or were not determined (ND).

**Q.** `CC[C@@H]1CN(Cc2cc([C@H](CC(=O)NCc3nccn3C)c3ccc4c(nnn4CC)c3C)ccc2C)S(=O)(=O)c2cccnc2O1` [Example 16, (S)-3-(3-(((R)-4-Ethyl-1,1-dioxido-3,4-dihydro-2H-pyrido[2,3-b][1,4,5]oxathiazepin-2-yl)methyl)-4-methylphenyl)-3-(1-ethyl-4-methyl-1H-benzo[d][1,2,3]triazol-5-yl)-N-((1-methyl-1H-imidazol-2-yl)methyl)propanamide] was tested. Which EC50 did it give?
**A.** Its EC50 is 1 to 10 µM.

**Q.** Which EC50 does the source give for `CC[C@@H]1CN(Cc2cc([C@H](CC(=O)Nc3nccn3C)c3ccc4c(nnn4CC)c3C)ccc2C)S(=O)(=O)c2cccnc2O1` [Example 17, (S)-3-(3-(((R)-4-Ethyl-1,1-dioxido-3,4-dihydro-2H-pyrido[2,3-b][1,4,5]oxathiazepin-2-yl)methyl)-4-methylphenyl)-3-(1-ethyl-4-methyl-1H-benzo[d][1,2,3]triazol-5-yl)-N-(1-methyl-1H-imidazol-2-yl)propanamide] here?
**A.** Its EC50 is 0.1 to 1 µM.

**Q.** How did the EC50 turn out when `CC[C@@H]1CN(Cc2cc([C@H](CC(=O)Nc3cncc4ccccc34)c3ccc4c(nnn4CC)c3C)ccc2C)S(=O)(=O)c2cccnc2O1` [Example 18, (S)-3-(3-(((R)-4-Ethyl-1,1-dioxido-3,4-dihydro-2H-pyrido[2,3-d][1,4,5]oxathiazepin-2-yl)methyl)-4-methylphenyl)-3-(1-ethyl-4-methyl-1H-benzo[d][1,2,3]triazol-5-yl)-N-(isoquinolin-4-yl)propanamide] was run?
**A.** The EC50 was 0.01 to 0.1 µM.

**Q.** `CC[C@@H]1CN(Cc2cc([C@H](CC(=O)Nc3ccncc3)c3ccc4c(nnn4CC)c3C)ccc2C)S(=O)(=O)c2cccnc2O1` [Example 19, (S)-3-(3-(((R)-4-Ethyl-1,1-dioxido-3,4-dihydro-2H-pyrido[2,3-b][1,4,5]oxathiazepin-2-yl)methyl)-4-methylphenyl)-3-(1-ethyl-4-methyl-1H-benzo[d][1,2,3]triazol-5-yl)-N-(pyridin-4-yl)propanamide] was tested. Which EC50 did it give?
**A.** Its EC50 is 0.1 to 1 µM.

**Q.** `CC[C@@H]1CN(Cc2cc([C@@H](c3ccc4c(nnn4CC)c3C)[C@@H](C)C(=O)N3C(=O)OC[C@H]3Cc3ccccc3)ccc2C)S(=O)(=O)c2cccnc2O1` [Example 20, (R)-4-Benzyl-3-((2R,3S)-3-(3-(((R)-4-ethyl-1,1-dioxido-3,4-dihydro-2H-pyrido[2,3-b][1,4,5]oxathiazepin-2-yl)methyl)-4-methylphenyl)-3-(1-ethyl-4-methyl-1H-benzo[d][1,2,3]triazol-5-yl)-2-methylpropanoyl)oxazolidin-2-one] was tested. Which EC50 did it give?
**A.** The EC50 was 0.1 to 1 µM.

**Q.** Which EC50 does the source give for `CC[C@@H]1CN(Cc2cc([C@H](CC(=O)NCCC(=O)N(C)C)c3ccc4c(nnn4CC)c3C)ccc2C)S(=O)(=O)c2cccnc2O1` [Example 21, (S)—N-(3-(Dimethylamino)-3-oxopropyl)-3-(3-(((R)-4-ethyl-1,1-dioxido-3,4-dihydro-2H-pyrido[2,3-b][1,4,5]oxathiazepin-2-yl)methyl)-4-methylphenyl)-3-(1-ethyl-4-methyl-1H-benzo[d][1,2,3]triazol-5-yl)propanamide] here?
**A.** Its EC50 is 1 to 10 µM.

**Q.** For `CC[C@@H]1CN(Cc2cc([C@H](CC(=O)NC3CCOC3)c3ccc4c(nnn4CC)c3C)ccc2C)S(=O)(=O)c2cccnc2O1` (stereo partly drawn) [Example 22, (3S)-3-(3-(((R)-4-Ethyl-1,1-dioxido-3,4-dihydro-2H-pyrido[2,3-b][1,4,5]oxathiazepin-2-yl)methyl)-4-methylphenyl)-3-(1-ethyl-4-methyl-1H-benzo[d][1,2,3]triazol-5-yl)-N-(tetrahydrofuran-3-yl)propanamide], which EC50 is on record?
**A.** Its EC50 is 0.1 to 1 µM.

**Q.** How did the EC50 turn out when `CC[C@@H]1CN(Cc2cc([C@H](CC(=O)NC(C)(C)C(N)=O)c3ccc4c(nnn4CC)c3C)ccc2C)S(=O)(=O)c2cccnc2O1` [Example 23, (S)-N-(1-Amino-2-methyl-1-oxopropan-2-yl)-3-(3-(((R)-4-ethyl-1,1-dioxido-3,4-dihydro-2H-pyrido[2,3-b][1,4,5]oxathiazepin-2-yl)methyl)-4-methylphenyl)-3-(1-ethyl-4-methyl-1H-benzo[d][1,2,3]triazol-5-yl)propanamide] was run?
**A.** The EC50 was 1 to 10 µM.

**Q.** `CC[C@@H]1CN(Cc2cc([C@H](CC(=O)NC3CN(C)C3)c3ccc4c(nnn4CC)c3C)ccc2C)S(=O)(=O)c2cccnc2O1` [Example 24, (S)-3-(3-(((R)-4-Ethyl-1,1-dioxido-3,4-dihydro-2H-pyrido[2,3-b][1,4,5]oxathiazepin-2-yl)methyl)-4-methylphenyl)-3-(1-ethyl-4-methyl-1H-benzo[d][1,2,3]triazol-5-yl)-N-(1-methylazetidin-3-yl)propanamide] was tested. Which EC50 did it give?
**A.** The EC50 was 1 to 10 µM.

**Q.** With `CC[C@@H]1CN(Cc2cc([C@H](CC(=O)NC3CCCOC3)c3ccc4c(nnn4CC)c3C)ccc2C)S(=O)(=O)c2cccnc2O1` (stereo partly drawn) [Example 25, (3S)-3-(3-(((R)-4-Ethyl-1,1-dioxido-3,4-dihydro-2H-pyrido[2,3-b][1,4,5]oxathiazepin-2-yl)methyl)-4-methylphenyl)-3-(1-ethyl-4-methyl-1H-benzo[d][1,2,3]triazol-5-yl)-N-(tetrahydro-2H-pyran-3-yl)propanamide] as the compound, how does the EC50 read?
**A.** The EC50 was 0.1 to 1 µM.

**Q.** `CC[C@@H]1CN(Cc2cc([C@H](CC(=O)NCC3CCOC3)c3ccc4c(nnn4CC)c3C)ccc2C)S(=O)(=O)c2cccnc2O1` (stereo partly drawn) [Example 26, (3S)-3-(3-(((R)-4-Ethyl-1,1-dioxido-3,4-dihydro-2H-pyrido[2,3-b][1,4,5]oxathiazepin-2-yl)methyl)-4-methylphenyl)-3-(1-ethyl-4-methyl-1H-benzo[d][1,2,3]triazol-5-yl)-N-((tetrahydrofuran-3-yl)methyl)propanamide] was tested. Which EC50 did it give?
**A.** The EC50 was 0.1 to 1 µM.

**Q.** How did the EC50 turn out when `CC[C@@H]1CN(Cc2cc([C@H](CC(=O)NCC(C)(C)O)c3ccc4c(nnn4CC)c3C)ccc2C)S(=O)(=O)c2cccnc2O1` [Example 27, (S)-3-(3-(((R)-4-Ethyl-1,1-dioxido-3,4-dihydro-2H-pyrido[2,3-b][1,4,5]oxathiazepin-2-yl)methyl)-4-methylphenyl)-3-(1-ethyl-4-methyl-1H-benzo[d][1,2,3]triazol-5-yl)-N-(2-hydroxy-2-methylpropyl)propanamide] was run?
**A.** Its EC50 is 1 to 10 µM.

**Q.** `CC[C@@H]1CN(Cc2cc([C@H](CC(=O)NC(C)C(=O)NC)c3ccc4c(nnn4CC)c3C)ccc2C)S(=O)(=O)c2cccnc2O1` (stereo partly drawn) [Example 28, (3S)-3-(3-(((R)-4-Ethyl-1,1-dioxido-3,4-dihydro-2H-pyrido[2,3-b][1,4,5]oxathiazepin-2-yl)methyl)-4-methylphenyl)-3-(1-ethyl-4-methyl-1H-benzo[d][1,2,3]triazol-5-yl)-N-(1-(methylamino)-1-oxopropan-2-yl)propanamide] was tested. Which EC50 did it give?
**A.** The EC50 was 1 to 10 µM.

**Q.** For `CC[C@@H]1CN(Cc2cc([C@H](CC(=O)NC3CCCNC3=O)c3ccc4c(nnn4CC)c3C)ccc2C)S(=O)(=O)c2cccnc2O1` (stereo partly drawn) [Example 29, (3S)-3-(3-(((R)-4-Ethyl-1,1-dioxido-3,4-dihydro-2H-pyrido[2,3-b][1,4,5]oxathiazepin-2-yl)methyl)-4-methylphenyl)-3-(1-ethyl-4-methyl-1H-benzo[d][1,2,3]triazol-5-yl)-N-(2-oxopiperidin-3-yl)propanamide], which EC50 is on record?
**A.** The EC50 was 1 to 10 µM.

**Q.** `CC[C@@H]1CN(Cc2cc([C@H](CC(=O)NCCS(N)(=O)=O)c3ccc4c(nnn4CC)c3C)ccc2C)S(=O)(=O)c2cccnc2O1` [Example 30, (S)-3-(3-(((R)-4-Ethyl-1,1-dioxido-3,4-dihydro-2H-pyrido[2,3-b][1,4,5]oxathiazepin-2-yl)methyl)-4-methylphenyl)-3-(1-ethyl-4-methyl-1H-benzo[d][1,2,3]triazol-5-yl)-N-(2-sulfamoylethyl)propanamide] was tested. Which EC50 did it give?
**A.** The EC50 was 0.1 to 1 µM.
